Consider seven molecules from publication PMC8911884, “Discovery of Novel 3,4-Dihydro-2(1H)-Quinolinone Sulfonamide Derivatives as New Tubulin Polymerization Inhibitors with Anti-Cancer Activity” (Molecules, 2022).

In one data set the test system is HeLa. As to the kind of experiment: MTT antiproliferative assay, HeLa. The format is cell-based, human. As to conditions: 48 h, mean ± SD. The text has this:
(§1) The MTT method was used to evaluate the anti-tumor activity and cytotoxic activity of all the synthesized compounds in four tumor cell lines (HeLa, HCT-116, A549 and HepG-2) and normal liver cells (L02). At the same time, the 5-fluorouracil(5-Fu) and CA-4 were used as positive references. […] Unfortunately, our target compound has a similar cytotoxicity to tumor cells and normal cells.
(§2) The HeLa, HCT-116, A549 and HepG-2 cells in the logarithmic growth phase were trypsinized, diluted with 10% DMEM medium and evenly seeded in a 96-well plate with 1 × 10^4 cells per well. We placed the inoculated 96-well plate in an incubator at 37 °C and 5% CO2 for 4 h. After the cells adhered to the wall, we removed the medium. We added 150 μL of medicated medium (1% DMEM) to each well of the experimental group, and the control group was added with an equal volume of solvent, with 3 replicate holes for each concentration. Then, we put it in the incubator and continued to incubate for 48 h. After that, we added MTT reagent in the dark, continued incubating for 4 h, discarded the supernatant, added 150 µL DMSO to each well and shook it for 10 min in the dark to fully dissolved the formazan. The absorbance was read at 492 nm by a microplate reader (ELx 800, BioTek, Highland Park, Winooski, VT, USA).
(§3) The inhibition rate (%) = (1-dosing hole OD value/control hole OD value); we drew a logarithmic curve diagram according to the inhibition rate and the dosing concentration to obtain the half inhibitory concentration.
(In general: Tetrazolium assays rely on reduction of a dye to a coloured formazan, in cell work by metabolically active cells.)

In the next data set the test system is A549. As to the kind of experiment: MTT antiproliferative assay, A549. It counts as cell-based, human. As to conditions: Homo sapiens, A549, 48 h, mean ± SD. As for the experimental part: The MTT method was used to evaluate the anti-tumor activity and cytotoxic activity of all the synthesized compounds in four tumor cell lines (HeLa, HCT-116, A549 and HepG-2) and normal liver cells (L02).
as §2, §3

Another data set has as its system HCT116. As to the kind of experiment: MTT antiproliferative assay, HCT116. As to conditions: Homo sapiens, HCT-116, 48 h, mean ± SD. It counts as cell-based, human.
Description: as §1, §2, §3

Another data set deals with HepG-2. As to the kind of experiment: MTT antiproliferative assay, HepG-2. It counts as cell-based, human. As to conditions: Homo sapiens, HepG2, 48 h, mean ± SD.
Description: as §1, §2, §3

The next data set has as its system L02. Put plainly: MTT cytotoxicity assay, normal liver cells L02. The format is cell-based. As to conditions: Homo sapiens, L02, 48 h, mean ± SD.
Description: as §1, §2, §3

Data set [1] has as its system HeLa, HCT-116, A549 and HepG-2. As to the kind of experiment: MTT antiproliferative activity across the four tumor cell lines. As to conditions: SAR discussion. The format is cell-based, human.
Description: as §1
As shown in, at the beginning, we first synthesized the ortho and meta substituted compounds, D7, D8, D9, D11 and D15. […] Then, we decided to introduce para-substituted benzaldehyde. […] This stimulated our interest, so we continued to introduce -OCH3 substituted at different positions to explore the effect of -OCH3 substituted at different positions on the anti-tumor activity of the compound. […] In short, we obtained a compound named D13 with good anti-tumor activity, and it was worthy of further study.
as §2, §3

A further data set has as its target T1, tubulin (Sus scrofa, UniProt P02550+P02554).
T1 construct: purchased Cytoskeleton (Danvers, MA, USA) BK011P
As to the kind of experiment: In vitro tubulin polymerization assay (fluorescence kit). The format is biochemical. As to conditions: area under fluorescence curve, 37 °C, 40 min.

Molecules are shown by their SMILES. “Also recorded” adds a separate entry of the source.

T1 sequence (P02554 whole entry): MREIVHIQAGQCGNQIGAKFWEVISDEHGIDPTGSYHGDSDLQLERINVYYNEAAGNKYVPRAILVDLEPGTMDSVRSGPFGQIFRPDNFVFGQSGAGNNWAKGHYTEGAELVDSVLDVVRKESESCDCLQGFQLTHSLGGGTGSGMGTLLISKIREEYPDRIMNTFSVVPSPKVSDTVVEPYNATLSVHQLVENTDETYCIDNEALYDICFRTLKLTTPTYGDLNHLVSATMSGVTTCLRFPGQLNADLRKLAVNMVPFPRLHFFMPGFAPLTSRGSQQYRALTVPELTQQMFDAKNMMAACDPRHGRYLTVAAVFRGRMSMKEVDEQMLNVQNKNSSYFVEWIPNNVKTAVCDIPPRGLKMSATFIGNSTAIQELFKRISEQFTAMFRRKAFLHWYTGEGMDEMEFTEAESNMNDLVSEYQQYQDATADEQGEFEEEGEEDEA
T1 sequence (P02550 whole entry): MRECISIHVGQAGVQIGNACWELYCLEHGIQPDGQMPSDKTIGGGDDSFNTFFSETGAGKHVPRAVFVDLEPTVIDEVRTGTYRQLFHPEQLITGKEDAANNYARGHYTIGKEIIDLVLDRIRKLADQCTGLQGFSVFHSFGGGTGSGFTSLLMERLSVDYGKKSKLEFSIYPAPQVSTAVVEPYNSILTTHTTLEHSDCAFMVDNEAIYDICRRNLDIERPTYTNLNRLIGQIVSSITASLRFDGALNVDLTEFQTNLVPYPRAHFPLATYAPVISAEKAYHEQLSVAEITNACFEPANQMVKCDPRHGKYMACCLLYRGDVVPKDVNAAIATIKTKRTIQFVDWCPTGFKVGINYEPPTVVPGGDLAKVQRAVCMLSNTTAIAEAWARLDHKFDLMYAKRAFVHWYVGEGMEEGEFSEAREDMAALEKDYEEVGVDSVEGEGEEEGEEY
Description for tubulin: A tubulin polymerization assay was performed by measuring the increase in the fluorescence intensity, which can be easily recorded due to the incorporation of a fluorescent reporter, DAPI (4′,6-diamidino-2-phenylindole), a fluorophore that is known to be a DNA intercalator. In our experiment, a commercial kit (cytoskeleton, cat. #BK011P) purchased from Cytoskeleton (Danvers, MA, USA) was used for the tubulin polymerization. The final buffer used for tubulin polymerization contained 80.0 mM of piperazine-N,N’-bis(2ethanesulfonic acid) sequisodium salt (pH 6.9), 2.0 mM MgCl2, 0.5 mM EGTA, 1.0 mM GTP, and 10.2% of glycerol. First, 5 μL of the tested compounds at the indicated concentrations was added, and the mixture was warmed to 37 °C for 1 min; then, the reaction was initiated by the addition of 55 uL of the tubulin solution. The fluorescence intensity enhancement was recorded every 30 s for 40 min in a multifunction microplate reader (Molecular Devices, Flex Station 3) (emission wavelength of 420 nm, excitation wavelength of 360 nm).

In general, IC50 refers to the concentration that gives 50% inhibition. For orientation: melting point means the temperature, or range, at which the solid turns liquid. On to `COc1cc(N(Cc2ccccc2F)S(=O)(=O)c2ccc3c(c2)CCC(=O)N3)cc(OC)c1OC` [Compound D8, N-(2-fluorobenzyl)-2-oxo-N-(3,4,5-trimethoxyphenyl)-1,2,3,4-tetrahydroquinoline-6-sulfonamide], for which the melting point fell in the range of 138 to 140 °C. This molecule registered an IC50 with HeLa (Homo sapiens, HeLa) of 21.6 ± 3.56 µM. In addition, the IC50 in the data set with A549 was above 100 µM. In the data set with HCT116, half-maximal inhibition (IC50) was put at 17.5 ± 1.33 µM. Besides, in the data set with HepG-2, the IC50 was determined as 50.9 ± 6.77 µM. Also, inhibition in the data set with L02 was half-maximal at 60.2 ± 4.21 µM (IC50). Moreover, the “antiproliferative activity (in words)” value in data set [1] is on record as “poor antiproliferative activity”.
Molecule `COc1cc(N(Cc2ccc(N(C)C)cc2)S(=O)(=O)c2ccc3c(c2)CCC(=O)N3)cc(OC)c1OC` [Compound D6, N-(4-(dimethylamino)benzyl)-2-oxo-N-(3,4,5-trimethoxyphenyl)-1,2,3,4-tetrahydroquinoline-6-sulfonamide] displayed a melting point of 127 to 129 °C. In the data set with HeLa (Homo sapiens, HeLa), this molecule displayed an IC50 of 3.63 ± 0.98 µM. Half-maximal inhibition in the data set with A549 (IC50) required 2.42 ± 0.46 µM. Besides, the IC50 with HCT116 is 2.05 ± 0.11 µM. This molecule also registered a 50% inhibitory concentration (IC50) in the data set with HepG-2 of 4.74 ± 1.56 µM. In addition, in the data set with L02, the IC50 is 5.31 ± 1.02 µM. For the same molecule, in data set [1], the “antiproliferative activity (in words)” value is recorded as “strong anti-proliferative activity”.
Molecule `COc1cc(N(Cc2ccc(Cl)cc2)S(=O)(=O)c2ccc3c(c2)CCC(=O)N3)cc(OC)c1OC` [Compound D4, N-(4-chlorobenzyl)-2-oxo-N-(3,4,5-trimethoxyphenyl)-1,2,3,4-tetrahydroquinoline-6-sulfonamide] showed a melting point of 119 to 121 °C. The molecule also displayed an IC50 in the data set on HeLa (Homo sapiens, HeLa) of 9.67 ± 2.1 µM. In addition, the IC50 with A549 came to 8.49 ± 1.77 µM. The same molecule gave an IC50 with HCT116 of 4.21 ± 0.5 µM. In the data set on HepG-2, this molecule registered an IC50 of 4.12 ± 0.55 µM. In the data set with L02, this molecule registered an IC50 of 6.35 ± 2.03 µM. For the same molecule, in data set [1], the “antiproliferative activity (in words)” value is on record as “strong anti-proliferative activity”.
For `COc1cc(N(Cc2cccc(C)c2)S(=O)(=O)c2ccc3c(c2)CCC(=O)N3)cc(OC)c1OC` [Compound D7, N-(3-methylbenzyl)-2-oxo-N-(3,4,5-trimethoxyphenyl)-1,2,3,4-tetrahydroquinoline-6-sulfonamide], the melting point was in the range of 120 to 122 °C. Further, inhibition in the data set on HeLa (Homo sapiens, HeLa) was half-maximal at 36.5 ± 3.59 µM (IC50). This molecule also displayed an IC50 with A549 of 35 ± 6.74 µM. Inhibition in the data set with HCT116 was half-maximal at 28.2 ± 4.26 µM (IC50). Further, the IC50 with HepG-2 was 44.3 ± 4.31 µM. The molecule also had an IC50 in the data set with L02 of 30.2 ± 2.56 µM. Moreover, in data set [1], the “antiproliferative activity (in words)” value is recorded as “poor antiproliferative activity”.
Regarding `COc1cc(N(Cc2ccccc2Cl)S(=O)(=O)c2ccc3c(c2)CCC(=O)N3)cc(OC)c1OC` [Compound D9, N-(2-chlorobenzyl)-2-oxo-N-(3,4,5-trimethoxyphenyl)-1,2,3,4-tetrahydroquinoline-6-sulfonamide], the melting point fell in the range of 117 to 119 °C. Moreover, the IC50 in the data set with HeLa (Homo sapiens, HeLa) is 16.9 ± 4.11 µM. This molecule also displayed an IC50 in the data set with A549 of 31.7 ± 4.55 µM. In the data set with HCT116, this molecule registered an IC50 of 12.2 ± 2.89 µM. The molecule also yielded an IC50 in the data set with HepG-2 of 27.5 ± 3.28 µM. Moreover, the IC50 in the data set with L02 is 36.2 ± 4.21 µM. Moreover, the “antiproliferative activity (in words)” value in data set [1] was “poor antiproliferative activity”.
As to `COc1ccc(CN(c2cc(OC)c(OC)c(OC)c2)S(=O)(=O)c2ccc3c(c2)CCC(=O)N3)cc1` [Compound D13, N-(4-methoxybenzyl)-2-oxo-N-(3,4,5-trimethoxyphenyl)-1,2,3,4-tetrahydroquinoline-6-sulfonamide], the melting point was in the range of 122 to 124 °C. For the same molecule, in the data set on HeLa, the IC50 was 1.46 ± 0.11 µM. In the data set on HeLa (Homo sapiens, HeLa), 1.34 µM corresponded to half-maximal inhibition (IC50). Also, inhibition in the data set on A549 was half-maximal at 1.57 ± 0.25 µM (IC50). Further, in the data set with HCT116, 0.94 ± 0.31 µM corresponded to half-maximal inhibition (IC50). This molecule displayed an IC50 in the data set with HepG-2 of 1.82 ± 0.97 µM. The same molecule came in with an IC50 in the data set on L02 of 3.61 ± 1.02 µM. The IC50 against tubulin stood at 6.74 µM. Besides, the “antiproliferative activity (in words)” value in data set [1] was “strongest anti-proliferative activity; also recorded: strong anti-proliferative activity”.
On to `COc1cc(N(Cc2ccc(F)cc2)S(=O)(=O)c2ccc3c(c2)CCC(=O)N3)cc(OC)c1OC` [Compound D3, N-(4-fluorobenzyl)-2-oxo-N-(3,4,5-trimethoxyphenyl)-1,2,3,4-tetrahydroquinoline-6-sulfonamide], for which the melting point lay within 108 to 110 °C. Also, the midpoint of inhibition in the data set with HeLa (Homo sapiens, HeLa), the IC50, lay at 7.54 ± 1.48 µM. The IC50 with A549 came to 18.2 ± 4.11 µM. Half-maximal inhibition in the data set with HCT116 (IC50) required 3.87 ± 0.12 µM. The IC50 with HepG-2 worked out at 6.31 ± 1.21 µM. In addition, the IC50 in the data set on L02 is 5.31 ± 1.08 µM. Moreover, in data set [1], the “antiproliferative activity (in words)” value is “strong anti-proliferative activity”.
